Experimental data taken from PubChem BioAssay (NCI).
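Cells were grown in 96-well plates and exposed to each compound for 48 hours at five concentrations; endpoints were interpolated linearly between bracketing concentrations, or set to the highest concentration if not reached. TGI denotes the concentration required for complete inhibition of growth.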

What was measured:
Test in all cases: NCI tumour cell line growth inhibition, 48 h
[1] = test system: NCI-H522 lung
[2] = test system: COLO 205 colon
[3] = test system: SF-268 CNS
[4] = test system: HOP-62 NSCLC
[5] = test system: RXF 393 renal
[6] = test system: NCI/ADR-RES ovarian
[7] = test system: HL-60(TB) leukemia
[8] = test system: MDA-MB-231 breast
[9] = test system: NCI-H226 lung
[10] = test system: LOX IMVI melanoma
[11] = test system: OVCAR-8 ovarian
[12] = test system: A549 NSCLC
[13] = test system: M14 melanoma
[14] = test system: OVCAR-3 ovarian
[15] = test system: HCT-15 colon
[16] = test system: UACC-62 melanoma
[17] = test system: NCI-H23 lung
[18] = test system: NCI-H460 lung
[19] = test system: HCT-116 colon
[20] = test system: SNB-75 CNS
[21] = test system: RPMI-8226 leukemia
[22] = test system: SK-MEL-2 melanoma
[23] = test system: IGROV1 ovarian
[24] = test system: HOP-92 NSCLC
[25] = test system: MDA-N
[26] = test system: SK-OV-3 ovarian
[27] = test system: OVCAR-4 ovarian
[28] = test system: OVCAR-5 ovarian
[29] = test system: MALME-3M melanoma
[30] = test system: PC-3 prostate
[31] = test system: SW-620 colon
[32] = test system: ACHN renal
[33] = test system: TK-10 renal
[34] = test system: BT-549 breast
[35] = test system: SNB-19 CNS
[36] = test system: SF-539 CNS
[37] = test system: HS 578T breast
[38] = test system: HT29 colon
[39] = test system: KM12 colon
[40] = test system: SN12C renal
[41] = test system: UACC-257 melanoma
[42] = test system: T-47D breast
[43] = test system: SK-MEL-28 melanoma
[44] = test system: 786-0 renal
[45] = test system: MDA-MB-435
[46] = test system: A498 renal
[47] = test system: DU-145 prostate
[48] = test system: U251 CNS
[49] = test system: SK-MEL-5 melanoma
[50] = test system: K-562 leukemia
[51] = test system: CAKI-1 renal
[52] = test system: SR leukemia
[53] = test system: SF-295 CNS
[54] = test system: MOLT-4 leukemia
[55] = test system: MCF7 breast
[56] = test system: CCRF-CEM leukemia
[57] = test system: EKVX NSCLC
[58] = test system: UO-31 renal
[59] = test system: HCC-2998 colon

COC(=O)C1OC(SCCN)C(O)C(O)C1O (configuration not stated)
TGI [1]: > 100 µM | TGI [2]: > 100 µM | TGI [3]: > 100 µM | TGI [4]: > 100 µM | TGI [5]: > 100 µM | TGI [6]: > 100 µM | TGI [7]: > 100 µM | TGI [8]: > 100 µM | TGI [9]: > 100 µM | TGI [10]: > 100 µM | TGI [11]: > 100 µM | TGI [12]: > 100 µM | TGI [13]: > 100 µM | TGI [14]: > 100 µM | TGI [15]: > 100 µM | TGI [16]: > 100 µM | TGI [17]: > 100 µM | TGI [18]: > 100 µM | TGI [19]: > 100 µM | TGI [20]: > 100 µM | TGI [21]: > 100 µM | TGI [22]: > 100 µM | TGI [23]: > 100 µM | TGI [24]: > 100 µM | TGI [25]: > 100 µM | TGI [26]: > 100 µM | TGI [27]: > 100 µM | TGI [28]: > 100 µM | TGI [29]: > 100 µM | TGI [30]: > 100 µM | TGI [31]: > 100 µM | TGI [32]: > 100 µM | TGI [33]: > 100 µM | TGI [34]: > 100 µM | TGI [35]: > 100 µM | TGI [36]: > 100 µM | TGI [37]: > 100 µM | TGI [38]: > 100 µM | TGI [39]: > 100 µM | TGI [40]: > 100 µM | TGI [41]: > 100 µM | TGI [42]: > 100 µM | TGI [43]: > 100 µM | TGI [44]: > 100 µM | TGI [45]: > 100 µM | TGI [46]: > 100 µM | TGI [47]: > 100 µM | TGI [48]: > 100 µM | TGI [49]: > 100 µM | TGI [50]: > 100 µM | TGI [51]: > 100 µM | TGI [52]: > 100 µM | TGI [53]: > 100 µM | TGI [54]: > 100 µM | TGI [55]: > 100 µM | TGI [56]: > 100 µM | TGI [57]: > 100 µM

CCC1=C(CC2NCCc3cc(OC)c(OC)cc32)CC2c3ccccc3CCN2C1 (configuration not stated)
TGI [1]: 29.1 µM | TGI [2]: 21.8 µM | TGI [3]: > 100 µM | TGI [4]: > 100 µM | TGI [5]: > 100 µM | TGI [6]: > 100 µM | TGI [7]: 46.5 µM | TGI [8]: 74.4 µM | TGI [9]: 73.6 µM | TGI [10]: 26.3 µM | TGI [11]: > 100 µM | TGI [12]: > 100 µM | TGI [13]: 27.3 µM | TGI [14]: > 100 µM | TGI [15]: > 100 µM | TGI [16]: 28.8 µM | TGI [18]: 25.1 µM | TGI [19]: > 100 µM | TGI [20]: 87.9 µM | TGI [21]: 30.4 µM | TGI [22]: 29.2 µM | TGI [23]: > 100 µM | TGI [24]: 42.6 µM | TGI [25]: 27 µM | TGI [26]: > 100 µM | TGI [27]: > 100 µM | TGI [28]: > 100 µM | TGI [29]: 27.7 µM | TGI [30]: 78.3 µM | TGI [31]: 37.3 µM | TGI [32]: > 100 µM | TGI [33]: > 100 µM | TGI [34]: > 100 µM | TGI [35]: > 100 µM | TGI [36]: 21.4 µM | TGI [37]: 49.7 µM | TGI [38]: 20.6 µM | TGI [39]: > 100 µM | TGI [40]: > 100 µM | TGI [41]: 32 µM | TGI [58]: 36.3 µM | TGI [42]: 54.5 µM | TGI [43]: 29 µM | TGI [44]: 35.6 µM | TGI [45]: 25.8 µM | TGI [46]: 28.5 µM | TGI [47]: > 100 µM | TGI [48]: 27.6 µM | TGI [49]: 28 µM | TGI [50]: 22 µM | TGI [51]: > 100 µM | TGI [52]: 24.1 µM | TGI [53]: 76.3 µM | TGI [54]: 43.9 µM | TGI [55]: 42.7 µM | TGI [56]: 33.6 µM | TGI [57]: > 100 µM

CC(NNC(=S)N1CCN(c2ccccn2)CC1)c1cccc[n+]1[O-] (configuration not stated)
TGI [1]: 15.3 µM | TGI [2]: > 100 µM | TGI [3]: > 100 µM | TGI [4]: > 100 µM | TGI [5]: > 100 µM | TGI [6]: 36.5 µM | TGI [7]: 16.7 µM | TGI [8]: > 100 µM | TGI [9]: > 100 µM | TGI [10]: 39.1 µM | TGI [11]: > 100 µM | TGI [12]: > 100 µM | TGI [13]: > 100 µM | TGI [14]: > 100 µM | TGI [15]: > 100 µM | TGI [16]: 22.8 µM | TGI [17]: > 100 µM | TGI [18]: > 100 µM | TGI [19]: 13.7 µM | TGI [20]: > 100 µM | TGI [23]: > 100 µM | TGI [24]: > 100 µM | TGI [25]: > 100 µM | TGI [27]: > 100 µM | TGI [30]: > 100 µM | TGI [31]: > 100 µM | TGI [32]: > 100 µM | TGI [33]: > 100 µM | TGI [34]: > 100 µM | TGI [35]: > 100 µM | TGI [59]: > 100 µM | TGI [36]: 84.2 µM | TGI [37]: > 100 µM | TGI [38]: > 100 µM | TGI [39]: > 100 µM | TGI [40]: > 100 µM | TGI [41]: > 100 µM | TGI [58]: 82.3 µM | TGI [42]: > 100 µM | TGI [43]: > 100 µM | TGI [44]: > 100 µM | TGI [45]: > 100 µM | TGI [47]: > 100 µM | TGI [48]: > 100 µM | TGI [49]: 34.8 µM | TGI [51]: > 100 µM | TGI [52]: 96.1 µM | TGI [53]: > 100 µM | TGI [54]: > 100 µM | TGI [55]: > 100 µM | TGI [56]: 20.5 µM | TGI [57]: > 100 µM

N#CC(C#N)[C@@H]1CCC=C(Sc2ccccc2)[C@H]1Sc1ccccc1
TGI [1]: 6.01 µM | TGI [2]: 4.86 µM | TGI [3]: 14.7 µM | TGI [4]: 15.6 µM | TGI [5]: 4.84 µM | TGI [6]: 8.37 µM | TGI [7]: 18.7 µM | TGI [8]: 11.6 µM | TGI [9]: 4.01 µM | TGI [11]: 9.37 µM | TGI [12]: 12.7 µM | TGI [13]: 4.95 µM | TGI [14]: 12.8 µM | TGI [15]: 5.66 µM | TGI [16]: 13.9 µM | TGI [17]: 20.9 µM | TGI [18]: 13.6 µM | TGI [19]: 8.4 µM | TGI [20]: 17.9 µM | TGI [22]: 12.2 µM | TGI [23]: 13.6 µM | TGI [24]: 13.7 µM | TGI [25]: 4.41 µM | TGI [26]: 16.3 µM | TGI [27]: 17.2 µM | TGI [28]: 20.3 µM | TGI [29]: 13.6 µM | TGI [30]: 17.4 µM | TGI [32]: 6.07 µM | TGI [33]: 4.59 µM | TGI [34]: 11.9 µM | TGI [35]: 29 µM | TGI [59]: 6.79 µM | TGI [36]: 4.6 µM | TGI [37]: 26.6 µM | TGI [38]: 13.8 µM | TGI [39]: 12.2 µM | TGI [40]: 12.5 µM | TGI [41]: 6.48 µM | TGI [58]: 17.6 µM | TGI [42]: 7.71 µM | TGI [43]: 7.57 µM | TGI [44]: 5.64 µM | TGI [45]: 4.53 µM | TGI [46]: 26.9 µM | TGI [47]: 10.1 µM | TGI [48]: 23.6 µM | TGI [49]: 18.4 µM | TGI [50]: > 100 µM | TGI [51]: 8.29 µM | TGI [52]: > 27.1 µM | TGI [53]: 19.9 µM | TGI [54]: > 23.7 µM | TGI [55]: 14.1 µM | TGI [56]: 7.26 µM | TGI [57]: 15.4 µM
